Experimental findings from article PMC2010101 (British Journal of Cancer, 1979) are described below.

The assay addresses T1, low-Km cAMP phosphodiesterase.
T1 construct: gene Pde3b; not purified, mixture of isoenzymes
Nature of the assay: [3H]cAMP hydrolysis, paper chromatography. The format is biochemical, Rattus norvegicus. Particulars: 0.25 µM cAMP, 100 mM Tris-HCl pH 7.5, 4 mM MgCl2, 30 °C, 5 min, crude fraction, read-out: I50.

Molecules are shown by their SMILES. Read-outs that look alike come from different tables or passages of the source.

For the compound `CN(C)N=Nc1[nH]cnc1C(N)=O` [DTIC, 5-(3,3-dimethyl-1-triazeno)imidazole-4-carboxamide], the IC50 (competitive) was 790 µM.
Regarding `Cn1c(=O)c2[nH]cnc2n(C)c1=O` [theophylline], the IC50 came out at 350 µM.
